Test results: patent publication US4472409A, “2-Pyridylmethyl thio(sulfinyl)benzimidazoles with gastric acid secretion inhibiting effects” (Byk Gulden Lomberg Chemische Fabrik Gesellschaft mit …, priority 1981, dated 1984)

What was measured:
[1] = system: gastric ulcers provoked by a pylorus ligature (Shay rat); assay: Protective action on the stomach: antiulcerogenic test in the Shay rat (pylorus ligature + oral 100 mg/kg acetylsalicylic acid), reduction of ulcer index; type: in vivo; conditions: for Protective action on the stomach (rat), reduction in the ulcer index: 1 hour before pylorus ligature; for Protective action on the stomach (rat), ED25 / ED25: dose reducing ulcer index by 25% vs control; for Protective action on the stomach (rat), ED25 / Protective action on the stomach (rat), ED50 / ED25 / ED50: logarithmic interpolation; for Protective action on the stomach (rat), ED50 / ED50: dose reducing ulcer index by 50% vs control; for ED25 / ED50: Rattus norvegicus, po
Method: The effect of the compounds according to the invention on the formation of gastric ulcers provoked by a pylorus ligature (4 hours, so-called Shay rat) and oral administration of 100 mg/kg acetylsalicylic acid and on the inhibition of gastric secretion in rats during 4 hours is shown in the following table:
(§1) The antiulcerogenic action was tested in accordance with the method using the so-called Shay rat: Rats (female, 180 to 200 g, 4 animals per cage on a high grid) which had been fasted for 24 hours were subjected to ulcer provocation by pylorus ligature (under diethyl ether anaesthesia) and oral administration of 100 mg/10 ml/kg of acetylsalicyclic acid. The substances to be tested are administered orally (10 ml/kg) 1 hour before the pylorus ligature. The wound is closed by means of Michel clamps. 4 hours thereafter, the animals are killed under ether anaesthesia by atlas dislocation, and the stomach is removed. The stomach is opened longitudinally and fixed to a cork tile after the amount of gastric juice secreted [volume, and its hydrochloric acid content (titration with sodium hydroxide solution)] has been determined, the number and size (=diameter) of ulcers present are determined with a stereomicroscope with 10-fold magnification. The product of the degree of severity (according to the following rating scale) and the number of ulcers serves as the individual ulcer index.
The reduction in the average ulcer index of each treated group compared with that of the control group (=100%) serves as a measure of the antiulcerogenic effect. The ED25 and the ED50 designate the doses which reduce the average ulcer index and the gastric secretion by 25 and 50%.

[2] = system: gastric secretion (HCl-secretion of the rat stomach); assay: Gastric secretion inhibition (HCl-secretion over 4 hours) in the Shay rat; type: in vivo; conditions: for Gastric secretion (rat), inhibition in % of HCl-secretion: 4 hours; for Gastric secretion (rat), ED25 / ED25: dose reducing HCl secretion (sum 4 hours) by 25% vs control; for ED25 / ED50: Rattus norvegicus, po
Method: as §1, with “index. The reduction in the average ulcer index of each treated group compared with that of the control group (=100%) serves as a measure of the antiulcerogenic effect. The ED25 and the ED50 designate the doses which reduce the average ulcer index and the gastric secretion by 25 and 50%.” for “index.”

[3] = dose reducing HCl secretion (sum 4 hours) by 50% vs control, logarithmic interpolation

| Compound | Protective action on the stomach (rat), reduction in the ulcer index ([1]; dose 0.1 mg/kg p.o.) | Protective action on the stomach (rat), reduction in the ulcer index ([1]; dose 0.3 mg/kg p.o.) | Protective action on the stomach (rat), reduction in the ulcer index ([1]; dose 1.0 mg/kg p.o.) | Protective action on the stomach (rat), reduction in the ulcer index ([1]; dose 3.0 mg/kg p.o.) | Protective action on the stomach (rat), ED25 [1] | Protective action on the stomach (rat), ED50 [1] | Gastric secretion (rat), inhibition in % of HCl-secretion ([2]; dose 0.1 mg/kg p.o.) | Gastric secretion (rat), inhibition in % of HCl-secretion ([2]; dose 0.3 mg/kg p.o.) | Gastric secretion (rat), inhibition in % of HCl-secretion ([2]; dose 1.0 mg/kg p.o.) | Gastric secretion (rat), inhibition in % of HCl-secretion ([2]; dose 3.0 mg/kg p.o.) | Gastric secretion (rat), ED25 ([2]; logarithmic interpolation) | Gastric secretion (rat), ED50 [2, 3] | ED25 [1] | ED50 [1] | ED25 ([2]; logarithmic interpolation) | ED50 [2, 3] | Protective action on the stomach (rat), reduction in the ulcer index ([1]; dose 10.0 mg/kg p.o.) | Gastric secretion (rat), inhibition in % of HCl-secretion ([2]; dose 10.0 mg/kg p.o.) |
| --- | --- | --- | --- | --- | --- | --- | --- | --- | --- | --- | --- | --- | --- | --- | --- | --- | --- | --- |
| 4-Trifluoromethyl-2-[(4-methoxy-2-pyridylmethyl)sulfinyl]-(1H)-benzimidazole [Example 1] | +1% | 12% | 27% | 58% | 0.9 mg/kg, p.o. | 2.3 mg/kg, p.o. | 5% | 9% | 15% | 22% | ≥ 3.0 mg/kg, p.o. |  |  |  |  |  |  |  |
| 5-Trifluoromethyl-2-[(4-methoxy-3,5-dimethyl-2-pyridylmethyl)thio]-(1H)-benzimidazole [Example 8] |  |  | 50% | 63% | < 1.0 mg/kg, p.o. | 1.0 mg/kg, p.o. |  |  | 12% | 50% | 1.5 mg/kg, p.o. | 3.0 mg/kg, p.o. |  |  |  |  |  |  |
| COc1ccnc(C[S+]([O-])c2nc3cc(C(F)(F)F)ccc3[nH]2)c1 (stereo not drawn) [Serial No. 2, 5-Trifluoromethyl-2-[(4-methoxy-2-pyridylmethyl)sulfinyl]-(1H)-benzimidazole] | 6% | 29% | 88% | 100% |  |  | 0% | 18% | 60% | 84% |  |  | 0.24 mg/kg | 0.45 mg/kg | 0.35 mg/kg | 0.75 mg/kg |  |  |
| COc1ccnc(C[S+]([O-])c2nc3cc(C(F)(F)F)ccc3[nH]2)c1C (stereo not drawn) [Serial No. 3, 5-Trifluoromethyl-2-[(4-methoxy-3-methyl-2-pyridylmethyl)sulfinyl]-(1H)--benzimidazole] |  | 25% | 98% |  |  |  |  | 40% | 88% |  |  |  | 0.3 mg/kg | 0.45 mg/kg | < 0.3 mg/kg | 0.4 mg/kg | 100% | 92% |
| COc1c(C)cnc(C[S+]([O-])c2nc3cc(C(F)(F)F)ccc3[nH]2)c1C (stereo not drawn) [Serial No. 4, 5-Trifluoromethyl-2-[(4-methoxy-3,5-dimethyl-2-pyridylmethyl)sulfinyl]-(1H)-benzimidazole] | 1% | 30% | 69% | 89% |  |  | +5% | 10% | 50% | 75% |  |  | 0.24 mg/kg | 0.55 mg/kg | 0.48 mg/kg | 1 mg/kg |  |  |
| COc1ccnc(CSc2nc3cc(C(F)(F)F)ccc3[nH]2)c1 [Serial No. 6, 5-Trifluoromethyl-2-[(4-methoxy-2-pyridylmethyl)thio]-(1H)-benzimidazole] |  |  | 27% | 97% |  |  |  |  | 15% | 70% |  |  | ~1 mg/kg | 1.4 mg/kg | 1.2 mg/kg | 2 mg/kg |  |  |
| COc1ccnc(CSc2nc3cc(C(F)(F)F)ccc3[nH]2)c1C [Serial No. 7, 5-Trifluoromethyl-2-[(4-methoxy-3-methyl-2-pyridylmethyl)thio]-(1H)-benzimidazole] |  | 30% | 94% |  |  |  |  | 26% | 85% |  |  |  | ≤ 0.3 mg/kg | 0.5 mg/kg | 0.3 mg/kg | 0.5 mg/kg |  |  |
